Source: patent US20140348880A1, “Ortho-Aminothiophenol Compounds and Uses Thereof” (Cape Breton University, priority 2013, published 2014)
Like-named read-outs stand apart in the source and are kept apart here.

Assays:
[1] = DPPH antioxidant activity test; settings: 50 μg compound in 3 mL methanol; DPPH 150 μL 1 mM; 30 min, 25 °C; absorbance 517 nm
Method: In addition to antibacterial properties, antioxidant activity was assessed in the compounds of Formula I and II and metal complexes thereof as antioxidant compounds play an important role in remediating the toxic effects of reactive oxygen species and other free radicals. The main characteristic of an antioxidant compound is its ability to trap free radicals. Highly reactive free radicals and oxygen species are present in biological systems from a wide variety of sources. Free radical damage is known to occur during bacterial and other microbial infections. Free radicals are produced by cells of the immune system during an active infection, and generally as a result of the inflammatory processes.
DPPH (2,2-diphenyl-1-picryl-hydrazyl, 150 μL, 1 mM solution in methanol) was added to 3 mL methanol in a cuvette (0.5 in diameter) and UV-vis absorption recorded at 517 nm for baseline reading. In a cuvette, DPPH (150 μL, 1 mM solution in methanol) was added to a solution containing compound in 3 mL methanol. The reaction was allowed to stir at 25±1° C. for 30 min under exclusion of light. Absorbance was recorded at 517 nm against reference cuvette filled with methanol.

[2] = system: B. cereus; experiment: Disc diffusion zone of inhibition (Example 2); type: cell-based, Bacillus cereus; settings: Bacillus cereus; for zone of inhibition at 200 µg/disc: 200 μg/disc; for zone of inhibition at 50 µg/disc: 50 μg/disc
Method: (§1) The growth medium was prepared by addition of Müller-Hinton agar (38 g) to 1 L distilled water under vigorous stirring and boiled for 10 min until complete dissolution. After cooling to 25° C., the pH value of the medium was 7.3±0.1. The medium was sterilized in an autoclave at 121° C. for 15 min at 20 psi, cooled to 45-50° C. and dispended into sterile Petri dishes on a leveled, horizontal surface to give uniform depth. Stock solutions of the microorganisms were incubated at 37° C. for 24 h and the turbidity of these microbial colony were adjusted visually with sterile saline (0.85% w/v NaCl) to 0.5 McFarland standards (bioMerieux, SA (France) they are made from barium sulfate (BaSO4). Within 15 min after adjusting the turbidity of the suspensions, the Petri dishes were inoculated using sterile cotton buds. The prepared antibiotic assay discs were placed on the surface of the seeded Müller-Hinton agar using flame sterilized forceps.
(§2) Stock solutions of compounds of Formula I, Ia, Ib and Formula II, IIa, pharmaceutically acceptable salts thereof, and metal complexes thereof were made in DMSO and were micropipetted onto the discs for 25 to 200 μg/disc. The discs were dried at ambient temperature for 30-50 min before placement onto the seeded Petri dishes which were then incubated at 37° C. for 24 h. Averaged inhibition zone diameters measurements (mm) have an accuracy of ±0.5 mm; adjacent overlapping ZOI were determined using radii measurements. Antibiotic disc like (sulfamethoxazole 23.75 μg trimethoprim 1.25 μg)/disc, Gentamicin 10 μg/disc and DMSO were used as positive and negative standards (control).
(§3) Antimicrobial test was carried out to evaluate the efficacy of compounds of Formula I, Ia, Ib and Formula II, IIa, pharmaceutically acceptable salts thereof, and metal complexes thereof, as well as control tests with control compounds, against six major pathogenic bacteria namely Bacillus cereus, Pseudomonas aeruginosa, Klebsiella pneumonia, Proteus vulgaris, Staphylococcus aureus and Escherichia coli.

[3] = system: S. aureus; experiment: Disc diffusion zone of inhibition (Example 2); type: cell-based, Staphylococcus aureus; settings: Staphylococcus aureus; for zone of inhibition at 50 µg/disc: 50 μg/disc
Method: as §1, §2, §3

[4] = system: Bacillus cereus; experiment: In vitro disc diffusion assay, ZOI (Example 3); type: cell-based; settings: 6 mm diameter discs; for ZOI: B. cereus; for Zone of Inhibition: Bacillus cereus
Method: (§4) Sterile assay discs (6 mm diameter) were obtained from VWR Whatman and antibiotic assay discs (6 mm diameter) containing getamicin (10 μg/disc) and the combination drug sulfamethoxazole 23.75 μg/disc and trimethoprim 1.25 μg/disc were obtained from Becton, Dickinson and Company (USA). Dimethyl sulfoxide (DMSO) for microbial experiments was BioReagent™ grade and was purchased from Sigma-Aldrich. The nutrient broth and Müller-Hinton agar was purchased from Becton, Dickinson and Company (USA). Bacillus cereus, Pseudomonas aeruginosa (#27853), Klebsiella pneumonia (#13883), Proteus vulgaris (#13315), Staphylococcus aureus (#25923) and Escherichia coli (#25922) strains were obtained from the American Type Culture Collection (ATCC). All materials in contact with antimicrobial matter was treated for 40 min at 121° C. and 20 psi in a biohazard autoclave bag prior to waste disposing or washing. McFarland turbity standards containing barium sulfate were obtained from bioMérieux.
as §1, with “the” for “these”, “colonies” for “colony”, “standards.” for “standards (bioMerieux, SA (France) they are made from barium sulfate (BaSO4).”
(§5) Stock solutions of compounds and the Cu complexed compounds were made in DMSO and were micropipetted onto the discs for 25 to 200 μg compound/disc. The discs were dried at ambient temperature for 30-50 min before placement onto the seeded Petri dishes which were then incubated at 37° C. for 24 h. Averaged inhibition zone measurements (mm) have an accuracy of ±0.5 mm; adjacent overlapping ZOI were determined using radii measurements.

[5] = system: Staphylococcus aureus (#25923); experiment: In vitro disc diffusion assay, ZOI (Example 3); type: cell-based; settings: 6 mm diameter discs; for ZOI: S. aureus; for Zone of Inhibition: Staphylococcus aureus
Method: as §4
as §1, with “the” for “these”, “colonies” for “colony”, “standards.” for “standards (bioMerieux, SA (France) they are made from barium sulfate (BaSO4).”
as §5

[6] = system: E. coli; experiment: Disc diffusion zone of inhibition (Example 2); type: cell-based, Escherichia coli; settings: Escherichia coli; for zone of inhibition at 200 µg/disc: 200 μg/disc
Method: as §1, §2, §3

[7] = system: P. aeruginosa; experiment: Disc diffusion zone of inhibition (Example 2); type: cell-based, Pseudomonas aeruginosa; settings: Pseudomonas aeruginosa; for zone of inhibition at 200 µg/disc: 200 μg/disc
Method: as §1, §2, §3

[8] = system: P. vulgaris; experiment: Disc diffusion zone of inhibition (Example 2); type: cell-based, Proteus vulgaris; settings: Proteus vulgaris; for zone of inhibition at 200 µg/disc: 200 μg/disc
Method: as §1, §2, §3

[9] = system: K. pnemonia; experiment: Disc diffusion zone of inhibition (Example 2); type: cell-based, Klebsiella pneumonia; settings: Klebsiella pneumoniae; for zone of inhibition at 200 µg/disc: 200 μg/disc
Method: as §1, §2, §3

[10] = system: B. cereus; experiment: Disc diffusion zone of inhibition (Example 2); type: cell-based; settings: Bacillus cereus
[11] = system: S. aureus; experiment: Disc diffusion zone of inhibition (Example 2); type: cell-based; settings: Staphylococcus aureus
[12] = S. aureus, 200 μg/disc, read-out: Zone of inhibition

Compound: Nc1ccccc1SCc1ccccc1CSc1ccccc1N.[Cl][Cu][Cl] [α,α′-bis((o-aminophenyl)thio)-ortho-xylene-copper (II) chloride]
- % Antiox-Act [1]: 56.1%

Compound: C(=N\c1ccccc1SCc1ccccc1CSc1ccccc1/N=C/c1ccccn1)/c1ccccn1 [Bis [N,N′-(2-pyridinyl methylidene)]α,α′-bis((o-aminophenyl)thio)-ortho-xylene]
- zone of inhibition at 200 µg/disc [2]: 7 mm
- zone of inhibition at 200 µg/disc [3, 12]: 7 mm
- % Antiox-Act [1]: 61.3%

Compound: C(=N\c1ccccc1SCc1ccccc1CSc1ccccc1/N=C/c1ccccn1)/c1ccccn1 [Compound L4]
- ZOI ([4]; 200 μg/disc): 0.5 mm
- ZOI ([5]; 200 μg/disc): 0.5 mm

Compound: Nc1ccccc1SCc1ccc(CSc2ccccc2N)cc1 [Compound L1]
- ZOI ([4]; 50 μg/disc): 1.5 mm
- ZOI ([4]; 100 μg/disc): 5 mm
- ZOI ([4]; 200 μg/disc): 6.3 mm
- ZOI ([5]; 50 μg/disc): 2.5 mm
- ZOI ([5]; 100 μg/disc): 3.5 mm
- ZOI ([5]; 200 μg/disc): 5.5 mm

Compound: C(=N\c1ccccc1SCc1ccccc1)/c1ccccn1 [Compound L3]
- ZOI ([4]; 50 μg/disc): 0 mm
- ZOI ([4]; 75 μg/disc): 0.5 mm
- ZOI ([5]; 50 μg/disc): 0 mm
- ZOI ([5]; 75 μg/disc): 2.5 mm

Compound: 2-(methylthio)-N-(2-pyridylmethylene)-benzenamine copper (I) bromide [ECPP-141]
- Zone of Inhibition ([4]; 6.25 μg Cu/disc): 0 mm
- Zone of Inhibition ([4]; 12.5 μg Cu/disc): 0 mm
- Zone of Inhibition ([4]; 25 μg Cu/disc): 2 mm
- Zone of Inhibition ([5]; 6.25 μg Cu/disc): 0.5 mm
- Zone of Inhibition ([5]; 12.5 μg Cu/disc): 2 mm
- Zone of Inhibition ([5]; 25 μg Cu/disc): 5 mm

Compound: 2-(methylthio)-N-(2-phenylmethylene)-benzenamine copper (II) bromide [ECPP-167]
- Zone of Inhibition ([4]; 6.25 μg Cu/disc): 0 mm
- Zone of Inhibition ([4]; 12.5 μg Cu/disc): 1 mm
- Zone of Inhibition ([4]; 25 μg Cu/disc): 2 mm
- Zone of Inhibition ([5]; 6.25 μg Cu/disc): 4 mm
- Zone of Inhibition ([5]; 12.5 μg Cu/disc): 5 mm
- Zone of Inhibition ([5]; 25 μg Cu/disc): 9 mm

Compound: CC(=O)[O-].CC(=O)[O-].Nc1ccccc1SCc1ccccc1CSc1ccccc1N.[Cu+2] [α,α′-bis((o-aminophenyl)thio)-ortho-xylene-copper (II) acetate]
- % Antiox-Act [1]: 63.5%

Compound: O=Cc1ccccn1 [2-pyridine carboxaldehyde]
- zone of inhibition at 50 µg/disc [2]: 20 mm
- zone of inhibition at 50 µg/disc ([6]; 50 μg/disc): 17 mm
- zone of inhibition at 50 µg/disc ([7]; 50 μg/disc): 24 mm
- zone of inhibition at 50 µg/disc ([8]; 50 μg/disc): 22 mm
- zone of inhibition at 50 µg/disc ([9]; 50 μg/disc): 23 mm
- zone of inhibition at 50 µg/disc ([3]; S. aureus): 15 mm
- % Antiox-Act [1]: 67.0%

Compound: C(=N\c1ccccc1SCc1ccccc1)/c1ccccn1 [N-(2-pyridinylmethylidene) S-benzyl-ortho-aminothiophenol]
- zone of inhibition at 75 µg/disc ([2]; 75 μg/disc): 7 mm
- zone of inhibition at 75 µg/disc ([3]; S. aureus, 75 μg/disc): 11 mm
- % Antiox-Act [1]: 65.8%

Compound: Nc1ccccc1SCc1ccccc1CSc1ccccc1N [Compound L2]
- ZOI ([4]; 200 μg/disc): 2 mm
- ZOI ([5]; 200 μg/disc): 1.5 mm

Compound: 2-(methylthio)-N-(2-pyridylmethylene)-benzenamine copper (I) iodide [ECPP-143]
- Zone of Inhibition ([5]; 6.25 μg Cu/disc): 0 mm
- Zone of Inhibition ([5]; 12.5 μg Cu/disc): 0 mm
- Zone of Inhibition ([5]; 25 μg Cu/disc): 1 mm

Compound: Nc1ccccc1SCc1ccc(CSc2ccccc2N)cc1 [α,α′-bis((o-aminophenyl)thio)-para-xylene]
- zone of inhibition at 50 µg/disc [2]: 9 mm
- zone of inhibition at 100 µg/disc ([2]; 100 μg/disc): 16 mm
- zone of inhibition at 200 µg/disc [2]: 19 mm
- zone of inhibition at 50 µg/disc ([3]; S. aureus): 11 mm
- zone of inhibition at 100 µg/disc ([3]; S. aureus, 100 μg/disc): 13 mm
- zone of inhibition at 200 µg/disc [3, 12]: 17 mm
- % Antiox-Act [1]: 65.4%

Compound: Nc1ccccc1SCc1ccccc1 [S-benzyl-ortho-aminothiophenol, S-benzyl ortho-aminothiophenol]
- zone of inhibition at 166 µg/disc ([2]; 166 μg/disc): 12 mm
- zone of inhibition at 166 µg/disc ([3]; S. aureus, 166 μg/disc): 11 mm
- zone of inhibition at 333 µg/disc ([10]; 333 μg/disc): 15 mm
- zone of inhibition at 666 µg/disc ([10]; 666 μg/disc): 16 mm
- zone of inhibition at 333 µg/disc ([11]; 333 μg/disc): 13 mm
- zone of inhibition at 666 µg/disc ([11]; 666 μg/disc): 15 mm

Compound: 2-(methylthio)-N-(2-thienylmethylene)-benzenamine copper (II) bromide [ECPP-129]
- Zone of Inhibition ([4]; 6.25 μg Cu/disc): 0 mm
- Zone of Inhibition ([4]; 12.5 μg Cu/disc): 0.5 mm
- Zone of Inhibition ([4]; 25 μg Cu/disc): 9 mm
- Zone of Inhibition ([5]; 6.25 μg Cu/disc): 5 mm
- Zone of Inhibition ([5]; 12.5 μg Cu/disc): 7 mm
- Zone of Inhibition ([5]; 25 μg Cu/disc): 10 mm

Compound: O=Cc1cccnc1 [3-pyridine carboxaldehyde]
- zone of inhibition at 200 µg/disc [2]: 27 mm
- zone of inhibition at 200 µg/disc [6]: 24 mm
- zone of inhibition at 200 µg/disc [7]: 23 mm
- zone of inhibition at 200 µg/disc [8]: 21 mm
- zone of inhibition at 200 µg/disc [9]: 22 mm
- zone of inhibition at 200 µg/disc [3, 12]: 32 mm

Compound: Nc1ccccc1SCc1ccccc1CSc1ccccc1N [α,α′-bis((o-aminophenyl)thio)-ortho-xylene]
- zone of inhibition at 200 µg/disc [2]: 8 mm
- zone of inhibition at 200 µg/disc [3]: 7 mm
- % Antiox-Act [1]: 60.8%

Compound: O=Cc1ccncc1 [4-pyridine carboxaldehyde]
- zone of inhibition at 200 µg/disc [2]: 29 mm
- zone of inhibition at 200 µg/disc [6]: 25 mm
- zone of inhibition at 200 µg/disc [7]: 27 mm
- zone of inhibition at 200 µg/disc [8]: 25 mm
- zone of inhibition at 200 µg/disc [9]: 26 mm
- zone of inhibition at 200 µg/disc [3, 12]: 30 mm

Compound: 2-(methylthio)-N-(2-pyridylmethylene)-benzenamine copper (II) bromide [ECPP-145]
- Zone of Inhibition ([4]; 6.25 μg Cu/disc): 0 mm
- Zone of Inhibition ([4]; 12.5 μg Cu/disc): 0 mm
- Zone of Inhibition ([4]; 25 μg Cu/disc): 0.5 mm
- Zone of Inhibition ([5]; 6.25 μg Cu/disc): 0 mm
- Zone of Inhibition ([5]; 12.5 μg Cu/disc): 1 mm
- Zone of Inhibition ([5]; 25 μg Cu/disc): 4 mm
